Reference: patent US7649012B2, “Compounds, pharmaceutical compositions containing same, and methods of use for same” (FASgen, Inc., priority 2002, dated 2010)
Converted amounts (≈) assume the structure as drawn. Like-named read-outs stand apart in the source and are kept apart here.

Legend:
[1] = tested on: MCF-7 human breast cancer cells; experiment: XTT cytotoxicity assay; assay type: cell-based; conditions: MCF7, MCF-7, 72 hours, some cells marked (M)
Protocol: The XTT assay is a non-radioactive alternative for the [^51 Cr] release cytotoxicity assay. XTT is a tetrazolium salt that is reduced to a formazan dye only by metabolically active, viable cells. The reduction of XTT is measured spectrophotometrically as OD490-OD650.
To measure the cytotoxicity of specific compounds against cancer cells, 9×10^3 MCF-7 human breast cancer cells, obtained from the American Type Culture Collection are plated per well in 96 well plates in DMEM medium with 10% fetal bovine serum, insulin, penicillin, and streptomycin. Following overnight culture at 37° C. and 5% CO2, the compounds to be tested, dissolved in DMSO, are added to the wells in 1 μl volume at the following concentrations: 80, 40, 20, 10, 5, 2.5, 1.25, and 0.625 μg/ml in triplicate. Additional concentrations are tested if required. 1 μl of DMSO is added to triplicate wells are the vehicle control. C75 is run at 40, 20, […], and 5 μg/ml in triplicate as positive controls. After 72 hours of incubation, cells are incubated for 4 hours with the XTT reagent as per manufacturer's instructions (Cell Proliferation Kit II (XTT) Roche). Plates are read at OD490 and OD650 on a Molecular Devices SpectraMax Plus Spectrophotometer. Three wells containing the XTT reagent without cells serve as the plate blank. XTT data are reported as OD490-OD650-Averages and standard error of the mean are computed using SOFTmax Pro software (Molecular Dynamics).
The IC50 for the compounds is defined as the concentration of drug leading to a 50% reduction in OD490-OD650 compared to controls. The OD490-OD650 are computed by the SOFTmax PRO software (Molecular Devices) for each compound concentration. IC50 is calculated by linear regression, plotting the FAS activity as percent of control versus drug concentrations. Linear regression, best-fit line, r^2, and 95% confidence intervals are determined using Prism Version 3.0 (Graph Pad Software).

[2] = tested on: MCF-7 human breast cancer cells; experiment: Crystal violet cell growth assay; assay type: cell-based; conditions: MCF7, MCF-7, 72 hours, read-out: Cr. Violet(IC50)
Protocol: The crystal violet assay measure cell growth but not cytotoxicity. This assay employs crystal violet staining of fixed cells in 96-well plates with subsequent solubilization and measurement of OD490 on a spectrophotometer. The OD490 corresponds to cell growth per unit time measured. Cells are treated with the compounds of interest or vehicle controls and IC50 for each compound is computed.
To measure the cytotoxicity of specific compounds against cancer cells, 5×10^4 MCF-7 human breast cancer cells, obtained from the American Type Culture Collection are plated per well in 24 well plates in DMEM medium with 10% fetal bovine serum, penicillin, and streptomycin. Following overnight culture at 37° C. and 5% CO2, the compounds to be tested, dissolved in DMSO, are added to the wells in 1 μl volume at the following concentrations: 50, 40, 30, 20, and 10 μg/ml in triplicate. Additional concentrations are tested if required. 1 μl of DMSO is added to triplicate wells are the vehicle control. C75 is run at 10, and 5 μg/ml in triplicate as positive controls.
After 72 hours of incubation, cells are stained with 0.5 ml of Crystal Violet stain (0.5% in 25% methanol) in each well. After 10 minutes, wells are rinsed, air dried, and then solubilized with 0.5 ml 10% sodium dodecylsulfate with shaking for 2 hours.

[3] = molecular target: T1, purified human FAS (Homo sapiens, UniProt P49327); experiment: Measurement of FAS enzymatic activity (NADPH oxidation), IC50; assay type: biochemical
T1 construct: Human FAS was purified from cultured ZR-75-1 human breast cancer cells; endogenous in cells; host or cells: ZR-75-1 human breast cancer cells (ATCC); endogenous enzyme purified by PEG precipitation and Mono Q anion exchange
Protocol: Human FAS was purified from cultured ZR-75-1 human breast cancer cells obtained from the American Type Culture Collection. The procedure, adapted from Linn et al., 1981, and Kuhajda et al., 1994, utilizes hypotonic lysis, successive polyethyleneglycol (PEG) precipitations, and anion exchange chromatography. […] The lysate is centrifuged in JA-20 rotor (Beckman) at 20,000 rpm for 30 minutes at 4° C. and the supernatant is brought to 42 ml with lysis buffer. A solution of 50% PEG 8000 in lysis buffer is added slowly to the supernatant to a final concentration of 7.5%. After rocking for 60 minutes at 4° C., the solution is centrifuged in JA-20 rotor (Beckman) at 15,000 rpm for 30 minutes at 4° C. […] After the rocking and centrifugation is repeated as above, the pellet is resuspended overnight at 4° C. in 10 ml of Buffer A (20 mM K2HPO4, pH 7.4). After 0.45 μM filtration, the protein solution is applied to a Mono Q 5/5 anion exchange column (Pharmacia). The column is washed for 15 minutes with buffer A at 1 ml/minute, and bound material is eluted with a linear 60-ml gradient over 60 minutes to 1 M KCl. […] FAS protein concentration is determined using the Coomassie Plus Protein Assay Reagent (Pierce) according to manufacturer's specifications using BSA as a standard. This procedure results in substantially pure preparations of FAS (>95%) as judged by Coomassie-stained gels. FAS activity is measured by monitoring the malonyl-CoA dependent oxidation of NADPH spectrophotometrically at OD340 in 96-well plates (Dils et al and […] et al, 1975). […] For each experiment, cerulenin (Sigma) is run as a positive control along with DMSO controls, inhibitors, and blanks (no FAS enzyme) all in duplicate. The assay is performed on a Molecular Devices SpectraMax Plus Spectrophotometer. The plate containing FAS, buffers, inhibitors, and controls are placed in the spectrophotometer heated to 37° C. Using the kinetic protocol, the wells are blanked on duplicate wells containing 100 μl of 100 mM K2HPO4, pH 6.5 and the plate is read at OD340 at 10 sec intervals for 5 minutes to measure any malonyl-CoA independent oxidation of NADPH. The plate is removed from the spectrophotometer and malonyl-CoA (67.4 μM, final concentration per well) and […] (61.8 μM, final concentration per well) are added to each well except to the blanks. The plate is read again as above with the kinetic protocol to measure the malonyl-CoA dependent NADPH oxidation. The difference between the Δ OD340 for the malonyl-CoA dependent and non-malonyl-CoA dependent NADPH oxidation is the specific FAS activity. Because of the purity of the FAS preparation, non-malonyl-CoA dependent NADPH oxidation is negligible. […] Graphs of Δ OD340 versus time are plotted by the SOFTmax PRO software (Molecular Devices) for each compound concentration.

[4] = Weight loss screen in Balb/C mice; assay type: in vivo; conditions: for change in vivo at 30 mg/kg / change in vivo at 60 mg/kg: read-out: Weight Loss; for change in vivo at 60 mg/kg: ip; for Deaths in weight loss screen: 60 mg/kg
Protocol: Balb/C mice (Jackson Labs) are utilized for the initial weight loss screening. Animals are housed in temperature and 12 hour day/night cycle rooms and fed mouse chow and water ad lib. Three mice are utilized for each compound tested with vehicle controls in triplicate per experiment. For the experiments, mice are housed separately for each compound tested three mice to a cage. […] Mice are observed and weighed daily; average weights and standard errors are computed with Excel (Microsoft). The experiment continues until treated animals reach their pretreatment weights. […]

[5] = Mus musculus, 48 h, 60 mg/kg intraperitoneally, day2
[6] = Mus musculus, 48 h, 30 mg/kg, day2
[7] = Mus musculus, 24 h, 60 mg/kg intraperitoneally, day1

T1 sequence (P49327 whole entry): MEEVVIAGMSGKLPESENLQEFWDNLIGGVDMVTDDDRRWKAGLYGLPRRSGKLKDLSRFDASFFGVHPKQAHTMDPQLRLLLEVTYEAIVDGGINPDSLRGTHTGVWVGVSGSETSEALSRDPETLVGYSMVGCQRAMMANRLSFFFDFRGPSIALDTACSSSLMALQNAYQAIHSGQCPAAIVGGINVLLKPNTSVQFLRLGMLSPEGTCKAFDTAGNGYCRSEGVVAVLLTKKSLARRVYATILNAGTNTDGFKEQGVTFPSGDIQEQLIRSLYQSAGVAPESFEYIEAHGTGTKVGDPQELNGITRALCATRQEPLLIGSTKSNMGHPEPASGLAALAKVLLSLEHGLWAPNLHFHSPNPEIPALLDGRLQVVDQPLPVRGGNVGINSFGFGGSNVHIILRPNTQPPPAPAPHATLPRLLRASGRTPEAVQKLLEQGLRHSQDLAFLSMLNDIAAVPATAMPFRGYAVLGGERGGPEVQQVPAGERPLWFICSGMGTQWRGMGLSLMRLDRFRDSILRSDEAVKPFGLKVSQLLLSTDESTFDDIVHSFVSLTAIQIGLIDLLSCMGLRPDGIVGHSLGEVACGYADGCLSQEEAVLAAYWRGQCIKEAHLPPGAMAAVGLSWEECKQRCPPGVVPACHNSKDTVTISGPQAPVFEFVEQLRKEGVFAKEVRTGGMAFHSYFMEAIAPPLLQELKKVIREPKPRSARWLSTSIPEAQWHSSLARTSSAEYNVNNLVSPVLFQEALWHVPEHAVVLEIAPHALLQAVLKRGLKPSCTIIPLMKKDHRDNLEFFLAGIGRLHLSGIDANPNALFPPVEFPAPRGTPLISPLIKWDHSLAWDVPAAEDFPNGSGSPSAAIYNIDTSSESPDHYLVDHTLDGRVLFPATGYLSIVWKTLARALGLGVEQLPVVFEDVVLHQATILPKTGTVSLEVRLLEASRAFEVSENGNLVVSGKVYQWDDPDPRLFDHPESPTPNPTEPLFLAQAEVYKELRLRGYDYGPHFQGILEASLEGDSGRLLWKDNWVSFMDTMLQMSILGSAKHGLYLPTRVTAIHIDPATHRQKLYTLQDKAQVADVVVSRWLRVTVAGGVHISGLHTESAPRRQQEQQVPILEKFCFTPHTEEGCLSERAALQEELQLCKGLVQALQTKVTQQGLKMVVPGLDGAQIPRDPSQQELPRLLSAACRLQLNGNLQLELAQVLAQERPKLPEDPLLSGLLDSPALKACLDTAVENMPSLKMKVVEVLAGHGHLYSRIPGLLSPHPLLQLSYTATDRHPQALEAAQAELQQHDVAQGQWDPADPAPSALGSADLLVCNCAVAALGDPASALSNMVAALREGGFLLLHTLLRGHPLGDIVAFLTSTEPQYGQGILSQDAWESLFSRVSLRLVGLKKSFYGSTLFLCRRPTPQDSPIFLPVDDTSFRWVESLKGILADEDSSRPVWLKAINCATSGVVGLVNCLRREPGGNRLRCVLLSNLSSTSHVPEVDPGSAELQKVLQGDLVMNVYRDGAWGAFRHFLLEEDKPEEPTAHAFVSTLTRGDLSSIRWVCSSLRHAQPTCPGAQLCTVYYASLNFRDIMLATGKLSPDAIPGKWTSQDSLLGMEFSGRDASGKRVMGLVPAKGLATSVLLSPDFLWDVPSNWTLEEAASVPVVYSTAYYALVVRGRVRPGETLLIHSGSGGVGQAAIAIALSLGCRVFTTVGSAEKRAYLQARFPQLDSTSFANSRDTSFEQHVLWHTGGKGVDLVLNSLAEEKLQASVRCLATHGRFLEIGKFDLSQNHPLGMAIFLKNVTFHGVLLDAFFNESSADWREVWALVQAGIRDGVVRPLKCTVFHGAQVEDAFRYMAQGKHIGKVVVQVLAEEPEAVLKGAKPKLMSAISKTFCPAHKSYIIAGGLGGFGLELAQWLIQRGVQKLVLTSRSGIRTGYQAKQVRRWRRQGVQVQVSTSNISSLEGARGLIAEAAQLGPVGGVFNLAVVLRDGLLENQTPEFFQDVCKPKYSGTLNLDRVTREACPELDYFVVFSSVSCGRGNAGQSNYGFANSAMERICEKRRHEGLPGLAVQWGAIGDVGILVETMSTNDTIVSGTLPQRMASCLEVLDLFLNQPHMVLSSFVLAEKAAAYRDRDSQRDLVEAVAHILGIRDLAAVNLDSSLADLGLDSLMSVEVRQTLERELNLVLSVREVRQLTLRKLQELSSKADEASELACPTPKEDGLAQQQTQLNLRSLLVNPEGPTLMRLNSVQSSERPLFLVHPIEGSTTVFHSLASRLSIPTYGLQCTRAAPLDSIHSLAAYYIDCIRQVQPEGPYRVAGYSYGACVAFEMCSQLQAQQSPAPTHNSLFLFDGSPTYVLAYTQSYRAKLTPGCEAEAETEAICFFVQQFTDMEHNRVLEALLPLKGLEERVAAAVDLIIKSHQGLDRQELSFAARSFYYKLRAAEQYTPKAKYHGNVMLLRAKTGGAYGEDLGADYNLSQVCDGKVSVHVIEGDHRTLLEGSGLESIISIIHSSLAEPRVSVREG

Compound | IC50 [1] | IC50 [2] | IC50 [3] | FAS(IC50) [3] | other results
CCCCCCCCC1(C)SC(=O)C(C(C)O)=C1OC (centres unmarked) | 21 ± 2.9 µg/mL (≈ 69.9 µM) | 23.2 µg/mL (≈ 77.2 µM) | 9.32 µM |  | change in vivo at 30 mg/kg ([4]; Mus musculus, 48 h): 0.2%
CCCCCC[C@@]1(C)SC(=O)C=C1OCC(=O)NCC(=O)O (racemic) | > 80 µg/mL | > 50 µg/mL |  | Neg | change in vivo at 60 mg/kg [4, 5]: 3.5%
CCCCCCC1(C)SC(=O)C=C1OC (centres unmarked) | 9.4 ± 1.5 µg/mL (≈ 41.2 µM) | 26.3 ± 4.3 µg/mL (≈ 115 µM) |  | Neg | Deaths in weight loss screen ([4]; day1, three mice): 3 of 3 dead; change in vivo at 30 mg/kg ([4]; Mus musculus, 24 h, 30 mg/kg, day1): 8.7%; change in vivo at 10 mg/kg ([4]; Mus musculus, 72 h, 10 mg/kg (multiple doses), day3): 1%
CCCCCCC1(C)SC(=O)C=C1O (centres unmarked) | > 80 µg/mL | > 50 µg/mL |  | Neg | Deaths in weight loss screen ([4]; day4, three mice): 60 mg/kg: 3 of 3 dead(day4)
C=CCOC1=CC(=O)S[C@]1(C)CCCCCCCC (racemic) | 14.5 ± 1.5 µg/mL (≈ 51.3 µM) | 11 µg/mL (≈ 38.9 µM) |  | Neg | Deaths in weight loss screen ([4]; day3, three mice): 3 of 3 dead; change in vivo at 30 mg/kg [4, 6]: 4.7%
C=CCOC(=O)OC1=CC(=O)S[C@]1(C)CCCCCCCC (racemic) | 34.9 ± 10 µg/mL (≈ 107 µM) | 35.8 µg/mL (≈ 110 µM) | 16.8 µM |  | change in vivo at 30 mg/kg ([4]; Mus musculus, 48 h): 1%; change in vivo at 60 mg/kg [4, 5]: 6.2%
CCCCCCCC[C@@]1(C)SC(=O)C=C1OCC(=O)OCC (racemic) | 35.3 ± 10.4 µg/mL (≈ 107 µM) | 17.9 ± 5.1 µg/mL (≈ 54.5 µM) |  | Neg | change in vivo at 30 mg/kg ([4]; Mus musculus, 24 h): 4.5%; change in vivo at 60 mg/kg [4, 7]: 1.8%
CCCC/C=C/C=C/C1(C)SC(=O)C=C1O (centres unmarked) | 59.4 ± 6.4 µg/mL (≈ 249 µM) | 43.9 ± 4.8 µg/mL (≈ 184 µM) | 36.1 µM |  | change in vivo at 60 mg/kg ([4]; Mus musculus, 144 h): 11%
C=C/C(C)=C/C1(C)SC(=O)C=C1O (centres unmarked) | > 80 µg/mL | > 50 µg/mL | 44.8 µM |  | change in vivo at 60 mg/kg ([4]; Mus musculus, 72 h, 60 mg/kg intraperitoneally, day3): 7.8%
CCCCCCCCC1(C)SC(=O)C=C1OCC(=O)NNCc1ccc(Cl)cc1 (centres unmarked) | 6.7 µg/mL (≈ 15.3 µM) | < 5 µg/mL |  | Neg | change in vivo at 60 mg/kg [4, 5]: 1.4%
CCCCCCCCC1(C)SC(=O)C=C1OCC(=O)NNC(C)=O (centres unmarked) | 25.3 µg/mL (≈ 71 µM) | 28.7 µg/mL (≈ 80.5 µM) |  | Neg | change in vivo at 60 mg/kg ([4]; Mus musculus, 96 h, 60 mg/kg intraperitoneally, day4): 5.9%
CC1(Cc2ccccc2)SC(=O)C=C1O (centres unmarked) | > 80 µg/mL | > 50 µg/mL |  | Neg | change in vivo at 60 mg/kg [4, 5]: 1.6%
C=CCC1=C(OC)C(C)(CCCCCCCC)SC1=O (centres unmarked) | 55 ± 2 µg/mL (≈ 186 µM) | 22.3 µg/mL (≈ 75.2 µM) |  | Neg | change in vivo at 60 mg/kg [4, 7]: 7.9%
C#CCOC1CC(=O)S[C@]1(C)CCCCCC (mixture of isomers) | 8.9 ± 2.3 µg/mL | 12.1 ± 1.5 µg/mL |  | Neg | Deaths in weight loss screen ([4]; day2, three mice): 3 of 3 dead; change in vivo at 30 mg/kg ([4]; Mus musculus, 72 h, 30 mg/kg, day3): 5.9%
C=CCOC1=CC(=O)S[C@]1(C)CCCCCC (racemic) | 9 ± 1.1 µg/mL (≈ 35.4 µM) | 8.1 µg/mL (≈ 31.8 µM) |  | Neg | Deaths in weight loss screen ([4]; day2, three mice): 2 of 3 dead; change in vivo at 30 mg/kg [4, 6]: 8.8%
CCCCCCCCC1(C)SC(=O)C=C1O (centres unmarked) | 17.6 ± 0.1 µg/mL (≈ 72.6 µM) | 28.7 µg/mL (≈ 118 µM) | 18.6 µM |  | change in vivo at 30 mg/kg ([4]; Mus musculus, 72 h): 4.8%
